Holding throughout (type): functional, cell-free
Experiment [1] is filed under the species Oryctolagus cuniculus. Briefly: Anticoagulant activity in New Zealand White rabbit plasma assessed as prolongation of activated partial thromboplastin time at 1 mM after 1 min.
For experiment [2], the species on record is Oryctolagus cuniculus. Briefly: Anticoagulant activity in New Zealand White rabbit plasma assessed as prolongation of thrombin time at 1 mM incubated for 3 mins followed by thrombin addition.
For experiment [3], the species on record is Oryctolagus cuniculus. The experiment is described as follows: Anticoagulant activity in New Zealand White rabbit plasma assessed as decrease in fibrinogen level at 1 mM after 3 mins.

Active and inactive are the calls of the source. No cut-off for these calls is given here.

Turning to `CCCCC(=O)[C@]12CC[C@H](C=C1C(=O)OC)[C@@H](CCC)[C@@]21OC(=O)C2=C[C@H]3CC[C@]21OO3`, the outcome in the experiment filed under Oryctolagus cuniculus [1], in the experiment filed under Oryctolagus cuniculus [2] and in the experiment filed under Oryctolagus cuniculus [3] was Active.
Take `CCC/C=C1\OC(=O)C2=C1CC[C@@H]1[C@@H]3CCC4=C(C(=O)OC45[C@H](CCC)[C@@H](CCC)[C@@]54OC(=O)C5=C4CCC=C5)[C@@H]3[C@H]21` (some centres undefined): the result in the experiment listed under Oryctolagus cuniculus [3] was Active.

Source of the values: ChEMBL document CHEMBL3861976, “Phthalide Derivatives with Anticoagulation Activities from Angelica sinensis” (J Nat Prod, 2016).
